Measurements published in the NIST ThermoML archive (doi:10.1021/je025579q).

Experiments:
[1] = 298.15 K; 101.33 kPa; Liquid
[2] = xn = mol fraction of the nth substance listed; settings: 298.15 K, 101.3 kPa, Liquid; for speed of sound: Sing-around technique in a fixed-path interferometer

COC(C)(C)C [2-methoxy-2-methylpropane]
[1]
Settings	mass density [kg/m3]	speed of sound [m/s]
–	735.35	1036.1

CCCCO [butan-1-ol]
[1]
Settings	mass density [kg/m3]	speed of sound [m/s]
–	805.67	1239.8

CCCCO [butan-1-ol] + CCCCCCCCCC
[2], x1 = 1
Settings	mass density [kg/m3]	speed of sound [m/s]
–	805.67	1239.8

CCCCCCCCCC [decane]
[1]
Settings	mass density [kg/m3]	speed of sound [m/s]
–	726.09	1234.7

CCCCCCCCCC [decane] + CCCCO
[2]
Settings	mass density [kg/m3]	speed of sound [m/s]
x2 = 0	726.09	1234.7
x2 = 0.04848	727.38	1230.8
x2 = 0.09526	728.99	1228.9
x2 = 0.2045	733.33	1225.6
x2 = 0.2974	737.65	1223.9
x2 = 0.3949	742.88	1222.7
x2 = 0.4455	745.96	1222.5
x2 = 0.4928	749.07	1222.4
x2 = 0.5579	753.72	1222.7
x2 = 0.5937	756.5	1222.9
x2 = 0.7031	766.17	1224.6
x2 = 0.7901	775.35	1226.7
x2 = 0.8707	785.36	1230.4
x2 = 0.948	796.76	1235.3
